# Source: US20260167608A1, “CRYSTALLINE FORMS OF 4-(7-HYDROXY-2-ISOPROPYL-4-OXO-4H-QUINAZOLIN-3-YL)-BENZONITRILE AND FORMULATIONS THEREOF” (Bausch + Lomb Ireland Limited, priority 2019, published 2026)
# Assays:
# [1] = Conversion of crystal form C in 1:1 mixtures with other crystal forms in solvent; format: physicochemical
# [2] = Intrinsic dissolution rate at 37° C.; format: physicochemical
# [3] = Equilibration with solvent at 25° C., solid investigated by XRPD; format: physicochemical; parameters: key to XRPD change after equilibration: “−”: no change detected; “+”: change detected; “//”: not carried out because substance too soluble in the solvent
# Description: Equilibration with Solvent at 25° C.
# For equilibration at 25° C., about 50 mg of compound I was equilibrated with 1 ml solvent for 24 h in a water bath at 25° C.±0.1. The solutions were filtered and dried for 10 minutes in the air. The solid part was investigated by XRPD (X-ray powder diffraction). If differences were observed additional investigations were performed as appropriate (e.g. DSC, TG, IR, SEM).
# The X-ray powder diffraction (XRPD) patterns described herein were recorded on a Bruker D8 Advance diffractometer using CuKα radiation. The XRPD pattern was recorded between 2° and 40° (2-theta).
# [4] = Solubility of crystal form E at 25° C., analysis by HPLC; format: physicochemical; settings: thermodynamic from solid
# Description: Solubility of crystal form E was measured at 25° C.
# [5] = Hygroscopicity (water uptake) of crystal form E; format: physicochemical
# Description: The maximum water uptake is less than 0.1% at 25° C. up to 92% relative humidity.
# [6] = Pharmacokinetic study of exploratory formulations, single bilateral topical ocular dosing; format: in vivo, rabbit; settings: male NZW rabbits
# Description: A pharmacokinetics study was conducted to determine the ocular uptake of compound I following single bilateral topical ocular dosing of male NZW rabbits with the same four exploratory formulations provided in Table 13: FID 12152, FID 121511, FID 121512, FID 121513.
# [7] = Exploratory formulation stability at room temperature and 40° C. (UPLC assay); format: physicochemical; settings: part of compound I in solution in the supernatant; after 12 weeks at 40° C.
# Description: Based on the limited solubility of compound I in various solvents and in water, a suspension formulation was explored for development. The following five formulations were prepared and tested for stability. Formulations were stored in crimp-sealed glass vials at room temperature and at 40° C. At 6, 8 and 12 weeks, samples were evaluated for compound I stability.
# The formulations prepared in Table 13 were assayed using an exploratory UPLC method developed for the assay of compound I as shown in Table 14.
# Results from the testing for compound I stability at room temperature and 40° C. are shown in FIG. 14A and FIG. 14B, respectively. […] In contrast, the part of compound I in solution in the supernatant degrades to about 20% of initial amount after 12 weeks at 40° C.
# [8] = equilibration at 25° C., solvent t-butylmethylether
structure (smiles),measurement,setting,value
"CC(C)c1nc2cc(O)ccc2c(=O)n1-c1ccc(C#N)cc1 [Crystal form C, 4-(7-Hydroxy-2-isopropyl-4-oxo-4H-quinazolin-3-yl)-benzonitrile]",conversion of crystal form,"[1]; 1:1 mixture with crystal form A, in methanol",converted in methanol to Solvate SB (crystal form G)
same,conversion of crystal form,"[1]; 1:1 mixture with crystal form B, in isopropanol",converted in isopropanol to crystal form B
"CC(C)c1nc2cc(O)ccc2c(=O)n1-c1ccc(C#N)cc1 [Crystal form E, 4-(7-Hydroxy-2-isopropyl-4-oxo-4H-quinazolin-3-yl)-benzonitrile]",Intrinsic dissolution rate (IDR) at 37° C.,[2]; HCl 0.1 N,0.0194 mg min^−1 cm^−2
same,Intrinsic dissolution rate (IDR) at 37° C.,[2]; pH 3,0.0025 mg min^−1 cm^−2
same,Comments,"[3]; equilibration at 25° C., solvent Acetone",too soluble
same,XRPD change after equilibration,"[3]; equilibration at 25° C., solvent Cyclohexane",−
same,XRPD change after equilibration,"[3]; equilibration at 25° C., solvent Ethanol abs.",−
same,XRPD change after equilibration,"[3]; equilibration at 25° C., solvent Ethyl acetate",−
same,XRPD change after equilibration,"[3]; equilibration at 25° C., solvent Water",−
same,Comments,[3]; [8],amorphous
same,XRPD change after equilibration,[3]; [8],+
same,Comments,"[3]; form E mixed with form B, equilibration at 25 degree C., solvent Ethanol abs.",converts into crystal form B
same,solubility,"[4]; acetate buffer pH 4.5, 25 °C, aqueous buffer, Buffer pH 4.5 (acetate)",10 µg/mL
same,solubility,"[4]; buffer pH 1 (0.1 N HCl), 25 °C, pH 1, simulated gastric fluid",345 µg/mL
same,solubility,"[4]; phosphate buffer pH 6.88, 25 °C, aqueous buffer, Buffer pH 6.88 (phosphate)",11 µg/mL
same,hygroscopicity,[5],non-hygroscopic
same,maximum water uptake,[5]; at 25° C. up to 92% relative humidity,less than 0.1%
"CC(C)c1nc2cc(O)ccc2c(=O)n1-c1ccc(C#N)cc1 [compound I, 4-(7-hydroxy-2-isopropyl-4-oxo-4H-quinazolin-3-yl)-benzonitrile]","exposure in the cornea, times the levels in plasma",[6],approximately 500 times
same,"exposure in the cornea, times the levels in the aqueous humor and iris-ciliary body",[6],approximately 10 times
same,"compound I remaining, of initial amount",[7],about 20%
